According to patent US10544085B2, “Oils having antibacterial activity” (The United States of America, as Represented by the …, priority 2014, dated 2020):
In brackets after ≈: the same amount, converted by molar mass.

Experiments:
[1] = tested on: E. faecalis; conditions: cited from earlier work
[2] = tested on: three strains of Staphylococcus aureus; conditions: cited from earlier work
[3] = tested on: Streptococcus epidermis; conditions: cited from earlier work
[4] = tested on: Enterococcus faecium; conditions: cited from earlier work
[5] = tested on: Streptococcus agalactiae; test: MIC, broth microdilution; assay type: cell-based; conditions: HPLC fractions, serial two-fold dilutions approximately 128 μg/ml to approximately 2 μg/ml
Excerpt: The eight bacterial strains listed in Table 1 are used in the antibacterial activity assays. Streptococcus agalactiae and S. uberis (gifts from D. Donovan, ARS, USDA, Beltsville, Md.), Lactobacillus fermentum laboratory strain number 0315-1 (Bischoff, et al., Biotechnology and Bioengineering 103:117-122 (2009)), Enterococcus faecalis (ATCC Accession Number 29212), Bacillus subtilis MW10 (Bacillus Genetic Stock Center Accession Number 1A751), Staphylococcus aureus (ATCC Accession Number 29213), Escherichia coli (ATCC Accession Number 25922), and Pseudomonas aeruginosa (ATCC Accession Number 27853) are obtained from the indicated source. S. uberis, S. agalactiae, S. aureus, E. coli, and P. aeruginosa are cultured in tryptic soy broth (TSB) at 37° C. TSB contains the following: peptone from casein 17.0 g/L; peptone from soymeal 3.0 g/L; D(+)glucose 2.5 g/L; sodium chloride 5.0 g/L; and di-potassium hydrogen phosphate 2.5 g/L. E. faecalis are cultured in Bacto Brain Heart Infusion broth (BHI) (Becton Dickenson, Franklin Lakes, N.J.) at 37° C. L. fermentum are cultured in MRS broth at 37° C. MRS broth contains the following: peptone from casein 10.0 g/L; meat extract 8.0 g/L; yeast extract 4.0 g/L; D(+)-glucose 20.0 g/L; di-potassium hydrogen phosphate 2.0 g/L; Tween® 80 1.0 g/L; di-ammonium hydrogen citrate 2.0 g/L; sodium acetate 5.0 g/L; magnesium sulfate 0.2 g/L; and manganese sulfate 0.04 g/L. […]
Fractions 5-14 that were obtained from the HPLC fractionation (above) are assayed for antibacterial activity against S. agalactiae by the broth dilution method with serial two-fold dilutions of each component ranging from approximately 128 μg/ml to approximately 2 μg/ml. Fraction 12, containing mannitol-liamocin B1 had the lowest minimum inhibitory concentration (i.e. highest antibacterial activity) of the fractions.

[6] = tested on: S. agalactiae; test: Disc diffusion assay of HPLC fractions; assay type: cell-based, Streptococcus agalactiae; conditions: 5 mg/ml, 10 μl per 6 mm disc, 37° C. overnight
Experimental: Antibacterial activity for each fraction of the HPLC is measured qualitatively by disc diffusion assay. S. agalactiae at a density of 0.5 McFarland units are diluted 1:100 in PBS, and 20 μl are evenly spread on TSB agar media. Paper discs (6 mm diameter) are placed on surface. HPLC fractionated oils are dissolved to a concentration of 5 mg/ml in solvent (1:1 dimethylsulfoxide:2-butanone), and samples (10 μl) are applied to each disc. Plates are incubated at 37° C. overnight, and scored for a growth inhibition zone surrounding the disc, which indicates antibacterial activity. 5 mg/ml of purified oil is used as positive control, and acetonitrile solvent for HPLC is used as negative control.

Compound: CCCCC[C@@H](O)C[C@@H](O)CC(=O)O[C@H](CCCCC)C[C@@H](O)CC(=O)O[C@H](CCCCC)C[C@@H](O)CC(=O)O [Exophilin A]
- MIC [1]: 25 µg/mL (≈ 43.3 µM)
- MIC [2]: 50 µg/mL (≈ 86.7 µM)
- MIC [3]: > 100 µg/mL
- MIC [4]: 12.5 µg/mL (≈ 21.7 µM)

Compound: mannitol-liamocin A1 [Fraction 7]
- Minimum Inhibitory Concentration ([5]; listed as 7): >128 µg/mL

Compound: mannitol-liamocin A1 [Fraction 8]
- growth inhibition zone surrounding the disc (antibacterial activity, qualitative) [6]: exhibit bactericidal activity
- Minimum Inhibitory Concentration ([5]; listed as 8): 64 µg/mL

Compound: mannitol-liamocin A2 [Fraction 9]
- growth inhibition zone surrounding the disc (antibacterial activity, qualitative) [6]: exhibit bactericidal activity
- Minimum Inhibitory Concentration ([5]; listed as 9): 128 µg/mL

Compound: mannitol-liamocin A2 [Fraction 10]
- Minimum Inhibitory Concentration ([5]; listed as 10): 64 µg/mL

Compound: mannitol-liamocin B1 [Fraction 11]
- growth inhibition zone surrounding the disc (antibacterial activity, qualitative) [6]: exhibit bactericidal activity
- Minimum Inhibitory Concentration ([5]; listed as 11): 64 µg/mL

Compound: mannitol-liamocin B1 [Fraction 12]
- Minimum Inhibitory Concentration ([5]; listed as 12): 16 µg/mL

Compound: mannitol-liamocin B2 [Fraction 13]
- growth inhibition zone surrounding the disc (antibacterial activity, qualitative) [6]: exhibit bactericidal activity
- Minimum Inhibitory Concentration [5]: 128 µg/mL
